This is an account of results in US12258299B2, “Permanent eco-fertilizer against fruit physiological disorders and pests” (S.A. Reverté Productos Minerales, priority 2019, dated 2025).

Data set [1] in a line: Salt index of the fertilizer. Type of data set: physicochemical.
Data set [2] concerns Golden apple pulp. The data set is described as follows: Foliar fertilization of the pulp of Golden apples. In kind it is in vivo. As to conditions: 30 kg/Ha, treatment last week of April. As for the experimental part: A first experiment was carried out to measure the foliar fertilization of Golden apples. The treatment was carried out the last week of April using a 3% weight suspension of the fertilizer as claimed in water (30 kg/1000 l water/Ha).

As to `[Ca+2].[Cl-].[Cl-]` [CaCl2, calcium chloride], the salt index in data set [1] was found to be 87. Further, in data set [2], the Calcium was determined as 24 ppm.
